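Cultured in 96-well plates, cells were exposed to test compound for 48 hours across five concentrations. GI50 is the concentration that inhibits growth by half.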 Activity calls are given as the source filed them. Rule as the data show it: active = GI50 up to about 1.1 µM and inactive = higher.
What was measured:
Assay in all cases: NCI tumour cell line growth inhibition, 48 h
786-0 = tested on: 786-0
A498 = tested on: A498
A549 = tested on: A549
ACHN = tested on: ACHN
CCRF-CEM = tested on: CCRF-CEM
COLO 205 = tested on: COLO 205
DLD-1 = tested on: DLD-1
DMS-114 = tested on: DMS-114
EKVX = tested on: EKVX
HCC 2998 = tested on: HCC 2998
HCT-116 = tested on: HCT-116
HCT-15 = tested on: HCT-15
HL-60 = tested on: HL-60
HOP-18 = tested on: HOP-18
HOP-62 = tested on: HOP-62
HOP-92 = tested on: HOP-92
HT-29 = tested on: HT-29
IGROV-1 = tested on: IGROV-1
K562 = tested on: K562
KM-20L2 = tested on: KM-20L2
LXFL 529 = tested on: LXFL 529
M14 = tested on: M14
M19-MEL = tested on: M19-MEL
MOLT-4 = tested on: MOLT-4
Malme-3M = tested on: Malme-3M
NCI-H226 = tested on: NCI-H226
NCI-H23 = tested on: NCI-H23
NCI-H522 = tested on: NCI-H522
OVCAR-4 = tested on: OVCAR-4
OVCAR-8 = tested on: OVCAR-8
RPMI-8226 = tested on: RPMI-8226
RXF 393 = tested on: RXF 393
SF-268 = tested on: SF-268
SF-295 = tested on: SF-295
SF-539 = tested on: SF-539
SK-MEL-28 = tested on: SK-MEL-28
SK-MEL-5 = tested on: SK-MEL-5
SK-OV-3 = tested on: SK-OV-3
SN12C = tested on: SN12C
SNB-19 = tested on: SNB-19
SNB-75 = tested on: SNB-75
SNB-78 = tested on: SNB-78
SR = tested on: SR
SW-620 = tested on: SW-620
U-251 = tested on: U-251
UACC-257 = tested on: UACC-257
UACC-62 = tested on: UACC-62
UO-31 = tested on: UO-31
XF498 = tested on: XF498
CAKI-1 = tested on: CAKI-1
DMS-273 = tested on: DMS-273
KM12 = tested on: KM12
LOX IMVI = tested on: LOX IMVI
NCI-H460 = tested on: NCI-H460
OVCAR-3 = tested on: OVCAR-3
OVCAR-5 = tested on: OVCAR-5
SK-MEL-2 = tested on: SK-MEL-2
TK-10 = tested on: TK-10
MCF7 = tested on: MCF7
NCI/ADR-RES = tested on: NCI/ADR-RES

Cc1occ2c1C(=O)CC1C2[C@@H](O)CC2C(C)(C)CCC[C@]12C (some centres not stated)
GI50 (786-0): > 100 µM (inactive)
GI50 (A498): > 100 µM (inactive)
GI50 (A549): > 100 µM (inactive)
GI50 (ACHN): > 100 µM (inactive)
GI50 (CCRF-CEM): 42.7 µM (inactive)
GI50 (COLO 205): > 100 µM (inactive)
GI50 (DLD-1): > 100 µM (inactive)
GI50 (DMS-114): 82.8 µM (inactive)
GI50 (EKVX): > 100 µM (inactive)
GI50 (HCC 2998): > 100 µM (inactive)
GI50 (HCT-116): > 100 µM (inactive)
GI50 (HCT-15): > 100 µM
GI50 (HL-60): 44.7 µM (inactive)
GI50 (HOP-18): > 100 µM (inactive)
GI50 (HOP-62): > 100 µM (inactive)
GI50 (HOP-92): > 100 µM (inactive)
GI50 (HT-29): > 100 µM (inactive)
GI50 (IGROV-1): > 100 µM (inactive)
GI50 (K562): > 100 µM (inactive)
GI50 (KM-20L2): > 100 µM (inactive)
GI50 (LXFL 529): > 100 µM (inactive)
GI50 (M14): > 100 µM (inactive)
GI50 (M19-MEL): > 100 µM (inactive)
GI50 (MOLT-4): 40 µM (inactive)
GI50 (Malme-3M): > 100 µM (inactive)
GI50 (NCI-H226): > 100 µM (inactive)
GI50 (NCI-H23): > 100 µM (inactive)
GI50 (NCI-H522): 56.5 µM (inactive)
GI50 (OVCAR-4): 98.9 µM (inactive)
GI50 (OVCAR-8): > 100 µM (inactive)
GI50 (RPMI-8226): 55.6 µM (inactive)
GI50 (RXF 393): > 100 µM (inactive)
GI50 (SF-268): > 100 µM (inactive)
GI50 (SF-295): > 100 µM (inactive)
GI50 (SF-539): > 100 µM (inactive)
GI50 (SK-MEL-28): > 100 µM (inactive)
GI50 (SK-MEL-5): > 100 µM (inactive)
GI50 (SK-OV-3): > 100 µM (inactive)
GI50 (SN12C): > 100 µM (inactive)
GI50 (SNB-19): > 100 µM (inactive)
GI50 (SNB-75): > 100 µM (inactive)
GI50 (SNB-78): > 100 µM (inactive)
GI50 (SR): 67.5 µM (inactive)
GI50 (SW-620): > 100 µM (inactive)
GI50 (U-251): 94.8 µM (inactive)
GI50 (UACC-257): > 100 µM (inactive)
GI50 (UACC-62): 95.7 µM (inactive)
GI50 (UO-31): > 100 µM (inactive)
GI50 (XF498): > 100 µM (inactive)

Cc1c(C2Cc3ccccc3N2)c2ccccc2n1C (configuration not stated)
GI50 (786-0): > 100 µM (inactive)
GI50 (A498): > 100 µM (inactive)
GI50 (A549): > 100 µM (inactive)
GI50 (ACHN): > 100 µM (inactive)
GI50 (CAKI-1): > 100 µM (inactive)
GI50 (CCRF-CEM): > 100 µM (inactive)
GI50 (COLO 205): > 100 µM (inactive)
GI50 (DLD-1): > 100 µM (inactive)
GI50 (DMS-114): > 100 µM (inactive)
GI50 (DMS-273): > 100 µM (inactive)
GI50 (EKVX): > 100 µM (inactive)
GI50 (HCC 2998): > 100 µM (inactive)
GI50 (HCT-116): > 100 µM (inactive)
GI50 (HCT-15): 36.3 µM
GI50 (HL-60): > 100 µM (inactive)
GI50 (HOP-62): > 100 µM (inactive)
GI50 (HT-29): > 100 µM (inactive)
GI50 (IGROV-1): > 100 µM (inactive)
GI50 (K562): > 100 µM (inactive)
GI50 (KM-20L2): > 100 µM (inactive)
GI50 (KM12): > 100 µM (inactive)
GI50 (LOX IMVI): > 100 µM (inactive)
GI50 (LXFL 529): > 100 µM (inactive)
GI50 (M14): > 100 µM (inactive)
GI50 (M19-MEL): > 100 µM (inactive)
GI50 (MOLT-4): > 100 µM (inactive)
GI50 (Malme-3M): > 100 µM (inactive)
GI50 (NCI-H226): > 100 µM (inactive)
GI50 (NCI-H23): > 100 µM (inactive)
GI50 (NCI-H460): 79.1 µM (inactive)
GI50 (NCI-H522): > 100 µM (inactive)
GI50 (OVCAR-3): > 100 µM (inactive)
GI50 (OVCAR-4): > 100 µM (inactive)
GI50 (OVCAR-5): > 100 µM (inactive)
GI50 (OVCAR-8): > 100 µM (inactive)
GI50 (RXF 393): > 100 µM (inactive)
GI50 (SF-268): > 100 µM (inactive)
GI50 (SF-295): > 100 µM (inactive)
GI50 (SF-539): > 100 µM (inactive)
GI50 (SK-MEL-2): > 100 µM (inactive)
GI50 (SK-MEL-5): > 100 µM (inactive)
GI50 (SK-OV-3): > 100 µM (inactive)
GI50 (SN12C): > 100 µM (inactive)
GI50 (SNB-19): > 100 µM (inactive)
GI50 (SNB-75): > 100 µM (inactive)
GI50 (SNB-78): > 100 µM (inactive)
GI50 (SR): > 100 µM (inactive)
GI50 (SW-620): > 100 µM (inactive)
GI50 (TK-10): > 100 µM (inactive)
GI50 (U-251): > 100 µM (inactive)
GI50 (UACC-257): > 100 µM (inactive)
GI50 (UACC-62): > 100 µM (inactive)
GI50 (UO-31): > 100 µM (inactive)
GI50 (XF498): > 100 µM (inactive)

O=C1CCCN1CCC/N=c1/cc2n(-c3ccc(Cl)cc3)c3ccccc3nc-2cc1Nc1ccc(Cl)cc1
GI50 (A498): 19.5 µM (inactive)
GI50 (A549): 15.7 µM (inactive)
GI50 (CAKI-1): 27 µM (inactive)
GI50 (CCRF-CEM): 12.6 µM (inactive)
GI50 (COLO 205): 1.41 µM (inactive)
GI50 (DLD-1): 4.81 µM (inactive)
GI50 (DMS-114): 6.38 µM (inactive)
GI50 (DMS-273): 15.6 µM (inactive)
GI50 (EKVX): 13.1 µM (inactive)
GI50 (HCC 2998): 5.18 µM (inactive)
GI50 (HCT-116): 7.26 µM (inactive)
GI50 (HCT-15): 4.52 µM
GI50 (HL-60): 3.47 µM (inactive)
GI50 (HOP-18): 24.8 µM (inactive)
GI50 (HOP-62): 12.9 µM (inactive)
GI50 (HOP-92): 8.17 µM (inactive)
GI50 (HT-29): 2.13 µM (inactive)
GI50 (IGROV-1): 2.75 µM (inactive)
GI50 (K562): 9.23 µM (inactive)
GI50 (KM-20L2): 2.42 µM (inactive)
GI50 (KM12): 13.4 µM (inactive)
GI50 (LOX IMVI): 7.71 µM (inactive)
GI50 (M19-MEL): 2.32 µM (inactive)
GI50 (MCF7): 7.24 µM (inactive)
GI50 (MOLT-4): 3.66 µM (inactive)
GI50 (Malme-3M): 16.5 µM (inactive)
GI50 (NCI-H226): 15.7 µM (inactive)
GI50 (NCI-H23): 8.26 µM (inactive)
GI50 (NCI-H460): 7.06 µM (inactive)
GI50 (NCI-H522): 9.23 µM (inactive)
GI50 (NCI/ADR-RES): 15.6 µM (inactive)
GI50 (OVCAR-3): 2.09 µM (inactive)
GI50 (OVCAR-4): 5.57 µM (inactive)
GI50 (OVCAR-5): 17 µM (inactive)
GI50 (OVCAR-8): 14.6 µM (inactive)
GI50 (RPMI-8226): 5.98 µM (inactive)
GI50 (RXF 393): 1.78 µM (inactive)
GI50 (SF-268): 38.5 µM (inactive)
GI50 (SF-295): 19.3 µM (inactive)
GI50 (SF-539): 12.7 µM (inactive)
GI50 (SK-MEL-28): 23.8 µM (inactive)
GI50 (SK-MEL-2): 13.1 µM (inactive)
GI50 (SK-MEL-5): 13 µM (inactive)
GI50 (SK-OV-3): 46.7 µM (inactive)
GI50 (SN12C): 14.8 µM (inactive)
GI50 (SNB-19): 34.7 µM (inactive)
GI50 (SNB-75): 25.6 µM (inactive)
GI50 (SNB-78): 18.9 µM (inactive)
GI50 (SW-620): 14.5 µM (inactive)
GI50 (U-251): 22.1 µM (inactive)
GI50 (UACC-257): 11.9 µM (inactive)
GI50 (UACC-62): 11.5 µM (inactive)
GI50 (UO-31): 6.73 µM (inactive)
GI50 (XF498): 19.7 µM (inactive)

From ChEMBL document CHEMBL1201862, “PubChem BioAssay data set” (2004)
